Measurements from patent publication US4285953A, “Inhibition of biosynthesis of triglycerides by certain N-β-phenethyl-N-pyridylalkylamines” (Shell Oil Company, priority 1980, dated 1981).

Test system: enzyme prepared from pig adipose tissue (synthesis of triglycerides)
Experiment: Inhibition of triglyceride synthesis by enzyme preparation from pig adipose tissue (14C-glycerol-3-phosphate incorporation)
Type: biochemical
Details: test compound 1000 micrograms per milliliter, 5% DMSO, 8 minutes at 37° C; compared to controls without test compound; average of two animals
Procedure: An enzyme was prepared by homogenizing one gram of slices from pig adipose tissue, each slice being approximately 0.3 mm thick, in onemilliliter portions of a liquid medium (Liquid A). The homogenate then was centrifuged (10.000 g×15 minutes), and the supernatant phase (the enzyme) was poured through cheesecloth to remove fat that had risen to the top of the centrifuge tubes.
Liquid A had the following composition (in water):
0.15 M potassium chloride, 1 mM ethylenediaminetetracetic acid, […] Hepes (N-2-hydroxyethylpiperazine-N'-2-ethanesulfonic acid), 1 mM DTT (dithiothreitol), pH=7.0.
A solution of the test compound (Liquid B) was prepared: 10 milligrams of test compound plus 0.5 milliliter dimethylsulfoxide (DMSO) plus 1.83 milliliters of glass-distilled water.
A premix (Liquid C) was freshly prepared before each test, from the following components: […]
0.25 milliliter of enzyme then was added. […] Ten milliliters of a 2:1 (v/v) mixture of toluene and Triton X-100 containing 0.27% New England Nuclear Omnifluor was added, and the radioactivity was determined in a liquid scintillation counter. […]
The percent inhibition by the test compound compared to the controls (no test compound) was determined.

SMILES | Percent Inhibition
Cc1ccc(CC(C)NCCCC(c2ccccc2)c2ccccn2)cc1.O=C(O)/C=C\C(=O)O (centres unmarked) [Compound 1, N-(1-methyl-2-(4-methylphenyl)ethyl)-delta-phenyl-2-pyridinebutanamine, maleic acid salt] | 97
CC(C)(Cc1ccc(Cl)cc1)NCCCC(c1ccccc1)c1ccccn1.O=C(O)/C=C\C(=O)O (centres unmarked) [Compound 2, N-(2-(4-chlorophenyl)-1,1-dimethylethyl)-delta-phenyl-2-pyridinebutanamine, maleic acid salt] | 93
